The test system of series [1] is PD-LID rat model (6-OHDA-lesioned rats). Put plainly: Oral administration of tandospirone citrate on dyskinesia-like symptoms in PD-LID rat model. Type of series: in vivo. As for the experimental part:
The behavior was observed and evaluated using the same method as Example 2. […] After 5 minutes, a levodopa containing solution was intraperitoneally administered, and the behavior was observed and evaluated. The results in the drawings are indicated in terms of mean value±standard error. The test results were statistically analyzed by comparison with the solvent administration group by Steel test using the total AIMs score in 3 hours and total AIMs score in 100 to 180 minutes as parameters. * indicates p<0.05, meaning that there is a significant difference. The dosage was described as a numerical value converted in terms of tandospirone free form.

Series [2] shares this test system. The series can be described thus: ON-time prolongation action (ON score, ON time without dyskinesia) in PD-LID rat model. Type of series: in vivo. As to conditions: oral 100 mg/kg as citrate. As for the experimental part:
To make a PD-LID rat model, a mixture of levodopa methyl ester hydrochloride (6 mg/kg; Sigma-Aldrich) dissolved in saline and benserazide hydrochloride (15 mg/kg; Sigma-Aldrich) (hereinafter, also referred to as “levodopa containing solution”) was intraperitoneally administered once daily to 6-OHDA-lesioned rats. The levodopa containing solution was repeatedly administered for 3 weeks or longer to observe and evaluate the behavior. […] The sum of the scores for Limb AIMs, Axial AIMs, and Orolingual AIMs in 3 hours was used as the total dyskinesia-like symptom (AIMs) score. Individuals with a total AIMs score of less than 10 were excluded from the test as not manifesting a dyskinesia-like symptom. The behavior was observed and evaluated before the drug evaluation date. The rats were assigned to each dosing group by using the 3 hour total dyskinesia-like symptom (AIMs) score, Locomotive behavior score, and rat body weight as indicators, which were used for evaluation of drugs. For an indicator of dyskinesia behavior, the sum of the Limb AIMs, Axial AIMs, and Orolingual AIMs at each evaluation point was used as the AIMs score. For the rotational behavior (ON score), Locomotive behavior at each evaluation point was used as an indicator. The total ON score in 3 hours was used as the total ON score. For ON time without dyskinesia, the period during which the AIMs score is 0 and Locomotive behavior is 1 or greater at each evaluation point was added. Duration of action of levodopa without a dyskinesia symptom (ON time without dyskinesia) refers to the aggregate time with no dyskinesia during the antiparkinsonian action effective time, i.e., “ON-time”, and defined as the time during which the dyskinesia symptom (AIMs) score is 0 and the rotational behavior (Locomotive behavior) score is 1 or greater at each evaluation point after levodopa administration. […] After 5 minutes, a levodopa containing solution was intraperitoneally administered, and the behavior was observed and evaluated. The results in the drawings are indicated in terms of mean value±standard error. The test results were statistically analyzed by comparison with the solvent administration group using the Steel test with the total ON score in 3 hours or ON time without dyskinesia as an indicator. ** indicates p<0.01, meaning that there is a significant difference. For evaluation of a tape agent, the abdominal regions of the rats were shaved prior to the evaluation date. […] After 4 hours from application, a levodopa containing solution was intraperitoneally administered to observe and evaluate the behavior. The results in the drawings are indicated in terms of mean value±standard error. Individuals with 50% or more of the tape agent coming off during the test were excluded from analysis. The test results were statistically analyzed by comparison with the placebo tape administration group using Wilcoxon rank sum test with the total ON score in 3 hours or ON time without dyskinesia as an indicator. * indicates p<0.05 and ** indicates […], meaning that there is a significant difference compared to the solvent oral administration group or the placebo tape administration group.

Series [3] has the same test system. Put plainly: Dyskinesia improving effect upon continuous subcutaneous infusion of tandospirone in PD-LID rat model. Type of series: in vivo. As for the experimental part:
The behavior was observed and evaluated before the drug evaluation date. The rats were assigned to each dosing group by using the 3 hour AIMs score, Locomotive behavior score, and rat body weight as indicators, which were used for evaluation of drugs. However, individuals with a total AIMs score of less than 10 were excluded from the test as lacking manifestation of a dyskinesia-like symptom. Individuals with a body weight deviating 10% or more from the mean body weight were also excluded from the test to minimize variation in the dosage for each individual. […] The prepared solution was used after injection into an ALZET® Osmotic Pump MODEL 2ML1 (9.68 μL/hour; DURECT). […] After 4 hours, a levodopa containing solution was administered to observe and evaluate the behavior. […] The results in the drawings are indicated in terms of mean value±standard error. The test results were statistically analyzed by comparison with the solvent administration group by Steel test using the total AIMs score in 3 hours and the total AIMs score in 100 to 180 minutes as parameters. * indicates p<0.05, meaning that there is a significant difference.

Series [4] is described as follows: Plasma tandospirone concentration measured after observation and evaluation of behavior in PD-LID rats. The series is classed as in vivo, rat. To be noted: rat, plasma. As for the experimental part:
50 μL of rat plasma sample was fractionated into a polypropylene microtube. 50 μL of methanol (50 μL of standard solution for calibration curve sample) and 200 μL of internal standard solution (Bezafibrate methanol solution: 200 nmol/L, 200 μL of methanol for blank sample) are added and stirred for about 10 seconds with a mixer. This is centrifuged (4° C., 4500 rpm, 10 min), and then the supernatant is subjected to vacuum filtration using a filter (FastRemover MF 0.2 μm). 70 μL of aqueous 10 mmol/L ammonium acetate solution is added to 70 μL of the resulting filtrate and stirred for about 10 seconds with a mixer to prepare a measurement sample.
When evaluating a tape agent, the hair on the abdominal region of rats was shaved before the evaluation date. The tape agent of formulation 2 was applied to the abdominal regions of rats on the evaluation date at 60 cm^2/kg (37 mg/kg). After 4 hours from application, a levodopa containing solution was intraperitoneally administered to observe and evaluate the behavior. Individuals with 50% or more of the tape agent coming off during the test were excluded from analysis.
After 4 hours from application, a levodopa containing solution was intraperitoneally administered to observe and evaluate the behavior. Individuals with 50% or more of the tape agent coming off during the test were excluded from analysis.
After 4 hours, a levodopa containing solution was administered to observe and evaluate the behavior.
After 4 hours, a levodopa containing solution was administered to observe and evaluate the behavior (day 0 of implanting the pump). Repeat administration of once daily levodopa containing solution was continued thereafter. The behavior was also observed and evaluated on day 13 of implanting the pump.

[5] abbreviates: oral 20 mg/kg as free form, FIGS. 7A-7C.
Setting [6] is: oral 20 mg/kg as free form, FIGS. 8A-8L.
The mark [7] stands for this setting: continuous subcutaneous infusion 1.25 mg/kg/hour.

Marks after values point to notes of the source that are not given here.

Take `O=C1[C@@H]2[C@H]3CC[C@H](C3)[C@@H]2C(=O)N1CCCCN1CCN(c2ncccn2)CC1` [tandospirone, (1R,2S,3R,4S)—N-[4-{4-(pyrimidine-2-yl)piperadine-1-yl}butyl]-2,3-bicyclo[2.2.1]heptanedicarboximide]: the “(i) Indicator of degree of improvement in dyskinesia symptom, in words” value in series [1] (oral 6.7 mg/kg as free form), in series [1] (oral 20 mg/kg as free form) and in series [1] (oral 67 mg/kg as free form) was “No improvement” throughout. The “(i) difference in total AIMs score in 3 hours (solvent minus tandospirone)” value is on record as −3.1 in series [1] (oral 6.7 mg/kg as free form), −6.5(FIGS. 7A-7C) in series [1] (setting [5]), −8.6(FIGS. 8A-8L) in series [1] (setting [6]) and 2.9 in series [1] (oral 67 mg/kg as free form). Also, the “(ii) Indicator of rebound symptom of dyskinesia, in words” value in series [1] (oral 6.7 mg/kg as free form) is “Exacerbating trend”; in series [1] (oral 20 mg/kg as free form) it was “Exacerbation”; in series [1] (oral 67 mg/kg as free form), “Exacerbation”. The “(ii) difference in total AIMs score in 100 to 180 minutes (solvent minus tandospirone)” value in series [1] (oral 6.7 mg/kg as free form) is −3.5; in series [1] (setting [5]) it was −9.1*(FIGS. 7A-7C); in series [1] (setting [6]), −8.5*(FIGS. 8A-8L); in series [1] (oral 67 mg/kg as free form), −10.1*. Besides, the “ON-time without dyskinesia for 180 minutes (Locomotive behavior ≥1, and AIMs score=0)” value in series [2] is “prolongation of ON time without dyskinesia was observed only at a dose at which there is a risk of side effects”. Also, the “dyskinesia-like symptoms (total AIMs score in 180 minutes) vs solvent” value in series [3] (setting [7]) is “significant improvement”. For the same compound, the “total AIMs score in 100 to 180 minutes vs solvent” value in series [3] (setting [7]) is on record as “significant improvement”. The “dyskinesia-like symptoms (total AIMs score in 180 minutes)” value in series [3] (continuous subcutaneous infusion 0.05, 0.25, 1.25 mg/kg/hour, levodopa after 4 hours) is “dose-dependently improved dyskinesia-like symptoms”. Besides, the “clear dyskinesia-like symptom (mean AIMs score of 2 or greater) at 120 to 140 minutes after levodopa administration” value in series [3] (continuous subcutaneous infusion 0.05-1.25 mg/kg/hour) was “not found”. Besides, the rebound symptom entry in series [3] (continuous subcutaneous infusion, any of the dosages) was “did not lead to a rebound symptom”. For the same compound, the concentration at 7 h was found to be 23.5 ng/mL in series [4] (continuous subcutaneous infusion 0.05 mg/kg/hour), 119 ng/mL in series [4] (continuous subcutaneous infusion 0.25 mg/kg/hour) and 541 ng/mL in series [4] (setting [7]).

The record behind these values is US11559525B2, “Therapeutic drug for dyskinesia” (Sumitomo Pharma Co., Ltd., priority 2019, dated 2023).
